Reference: US8143212B2 (Vicuron Pharmaceuticals Inc., priority 2002, dated 2012)
Converted amounts (≈) assume the structure as drawn. “And” between values parts separate entries of the source, which are not always exact repeats. Equal entries are not always repeated.

How the values were obtained:
S aureus = test: MIC, microbiological activity (Tables 2, 3); type: cell-based
P vulgaris = test: MIC, microbiological activity (Table 3); type: cell-based; conditions: L 79 P vulgaris
P aeruginosas = test: MIC, microbiological activity (Table 3); type: cell-based; conditions: L 4 P aeruginosas ATCC10145
S epidermidis = test: MIC, microbiological activity (Table 3); type: cell-based; conditions: L 147 S epidermidis
E. faecium Van-A = test: MIC, microbiological activity (Table 3); type: cell-based; conditions: L 1666 E. faecium Van-A
Staph. aureus = test: ED50 against Staph. aureus murine septicaemias (Table 2); type: in vivo; conditions: treatment once within 10 min from infection by sc route
E coli = test: MIC, microbiological activity (Table 3); type: cell-based; conditions: G 16440 E coli iperperm
S pneumoniae = test: MIC, microbiological activity (Table 3); type: cell-based; conditions: L 44 S pneumoniae UC41
B subtilis = test: MIC, microbiological activity (Table 3); type: cell-based; conditions: L 102 B subtilis ATCC
S pyogenes = test: MIC, microbiological activity (Table 3); type: cell-based; conditions: L 49 S pyogenes C203
C albicans = test: MIC, microbiological activity (Table 3); type: cell-based; conditions: L 145 C albicans SKF2270
E faecalis = test: MIC, microbiological activity (Table 3); type: cell-based
S haemolyticus = test: MIC, microbiological activity (Table 3); type: cell-based; conditions: L 602 S haemolyticus clin. isolate
[1] = test system: Escherichia coli, Proteus vulgaris, Pseudomonas aeruginosas; test: MIC by broth microdilution (NCCLS) of IsoB0 and reference compounds (Table 44), non-gram-positive bacterial strains; type: cell-based
Experimental: (§1) MICs were determined by the broth microdilution methodology following the standard NCCLS procedure, with or without 30% bovine serum, using bacterial inocula of approximately 5×10^5 CFU/mL. Tests were read after 20-24 h incubation at 35° C.

[2] = test system: Candida albicans SKF 2270; test: MIC by broth microdilution (NCCLS) (Tables 42, 44); type: cell-based
gram-negative bacteria [3] = conditions: E. coli ATCC25922 ref. strain; NCCLS M100 S-12; cited from earlier work
gram-negative bacteria [4] = test: MIC by broth microdilution (NCCLS) (Table 42); type: cell-based
Experimental: (§2) Before dissolution, each sample was analyzed by HPLC and quantified.
(§3) The microorganisms used were reference strains obtained from the American Type Culture Collection (ATCC) (Rockville, Md.), SmithKline and French Laboratories (SKF), and the Upjohn Company (UC) (Kalamazoo, Mich.).
(§4) MICs were determined by the broth microdilution methodology following the standard NCCLS procedure (NCCLS Document M7-A6, Vol. 23, No. 2, “Methods for dilution antimicrobial susceptibility tests for bacteria that grow aerobically.” Approved Guideline. January 2003, which can be herein incorporated by reference in its entirety), with or without 30% adult bovine serum (BS) (PAA Laboratories GMBH, Haidmannweg Pasching Austria), using bacterial innocula at approximately 5×10^5 CFU/ml. The media employed included cation-adjusted Müller Hinton broth (Difco Laboratories, Detroit, Mich.) that was used that was adjusted with CaCl2 and MgCl2 to a final concentration of 20 mg/L and 10 mg/L, respectively. Tests were read following 20-24 hours of incubation at 35° C.

[5] = test system: panel of gram-positive bacteria; test: MIC by broth microdilution (NCCLS) of IsoB0 and reference compounds (Table 44); type: cell-based
Experimental: Müller Hinton broth (Difco Laboratories, Detroit, Mich., USA) adjusted with CaCl2 and MgCl2 to a final concentrations of 20 mg/L and 10 mg/L respectively.
The microorganisms used are reference standard strains from the American Type Culture Collection (ATCC, Rockville, USA), Smith Kline and French Laboratories (SKF) and the Upjohn Company (UC, Kalamazoo, Mich., USA).
as §1

gram positive bacteria = test: MIC by broth microdilution (NCCLS), with or without 30% bovine serum (Table 42); type: cell-based
Experimental: as §2, §3, §4

[6] = Pseudomonas aeruginosas ATCC 10145
[7] = E. faecalis ATCC29212 ref. strain
[8] = Enterococcus faecalis ATCC 7080
[9] = S. aureus ATCC 29213 ref. strain
[10] = Staphylococcus aureus Smith ATCC 19636

Compound: CN[C@H]1C(=O)N[C@@H]2Cc3ccc(cc3)Oc3cc4cc(c3O)Oc3ccc(cc3Cl)[C@@H](O)[C@@H]3NC(=O)[C@H](NC(=O)[C@@H]4NC(=O)[C@@H](NC2=O)c2cc(cc(O)c2Cl)Oc2cc1ccc2O)c1ccc(O)c(c1)-c1c(O[C@H]2O[C@H](CO)[C@@H](O)[C@H](O)[C@@H]2O)cc(O)cc1[C@@H](C(=O)NCCCN(C)C)NC3=O [MAG]
- MIC (S aureus; 3797 S aureus clin. Isolate GISA): 0.5-0.5 μg/ml
- MIC (S aureus; 3817 S aureus clin. Isolate): 0.5 µg/mL (≈ 0.343 µM)
- MIC (S aureus; L 613 S aureus clin. isolate): 1 µg/mL and 0.5 µg/mL
- MIC (S aureus; L 819 S aureus Smith): 0.5 µg/mL and 0.25 µg/mL
- MIC (S aureus; L 819 S aureus Smith 50% serum): 1-1-1 μg/ml
- MIC (S aureus; MRSA Staph. aureus 3817): 0.5 µg/mL (≈ 0.343 µM)
- MIC (S aureus; MSSA Staph. aureus Smith 819): 0.5 µg/mL (≈ 0.343 µM)
- MIC (P vulgaris): >32->32->32 μg/ml
- MIC (P aeruginosas): >32->32->32 μg/ml
- MIC (S epidermidis): 0.25 µg/mL and 0.13 µg/mL
- MIC (E. faecium Van-A): >32->32->32 μg/ml
- ED50 (Staph. aureus; MRSA Staph. aureus 3817): 1.6 mg/kg
- ED50 (Staph. aureus; MSSA Staph. aureus Smith 819): 0.3 mg/kg
- MIC (E coli): 8 µg/mL and 16 µg/mL
- MIC (S pneumoniae): 1 µg/mL and 0.5 µg/mL
- MIC (B subtilis): 0.13-0.13 μg/ml
- MIC (S pyogenes): 0.5 µg/mL and 0.25 µg/mL
- MIC (C albicans): >32->32->32 μg/ml
- MIC (E faecalis; L 149 E faecalis): 0.25 µg/mL and 0.5 µg/mL
- MIC (E faecalis; L 562 E faecalis clin. isolate): 32->32->32 μg/ml
- MIC (S haemolyticus): >32-32 μg/ml

Compound: Gentamycin [reference compound]
- MIC ([1]; E. coli ATCC25922 ref. strain): 1 µg/mL
- MIC ([1]; Escherichia coli SKF 12140): 2 µg/mL
- MIC ([1]; Proteus vulgaris ATCC 881): 2 µg/mL
- MIC [1, 6]: 1 µg/mL
- MIC ([2]; Candida albicans SKF 2270 (Table 42)): >128 µg/mL
- MIC ([2]; Candida albicans SKF2270 (Table 44)): >128 µg/mL
- Quality control range of MICs for reference strains (gram-negative bacteria [3]): ^3GE 0.25-1 mg/L
- MIC (gram-negative bacteria [4]; E. coli ATCC25922 ref. strain): 1 µg/mL
- MIC (gram-negative bacteria [4]; Escherichia coli SKF 12140): 2 µg/mL
- MIC (gram-negative bacteria [4]; Proteus vulgaris ATCC 881): 2 µg/mL
- MIC (gram-negative bacteria [4]; [6]): 1 µg/mL
- MIC ([5]; Bacillus subtilis ATCC 6633): 0.25 µg/mL
- MIC [5, 7]: 32 µg/mL
- MIC [5, 8]: 8 µg/mL
- MIC [5, 9]: 8 µg/mL
- MIC ([5]; S. aureus Smith + 30% BS): ≦0.125 mg/L
- MIC ([5]; S. epidermidis ATCC 12228): ≦0.125 mg/L
- MIC ([5]; S. pneumoniae Felton UC41): 8 µg/mL
- MIC [5, 10]: 0.5 µg/mL
- MIC ([5]; Streptococcus pyogenes SKF13400): 4 µg/mL
- MIC (gram positive bacteria; Bacillus subtilis ATCC 6633): 0.25 µg/mL
- MIC (gram positive bacteria; [7]): 32 µg/mL
- MIC (gram positive bacteria; [8]): 8 µg/mL
- MIC (gram positive bacteria; [9]): 8 µg/mL
- MIC (gram positive bacteria; S. aureus Smith + 30% BS): ≦0.125 mg/L
- MIC (gram positive bacteria; S. epidermidis ATCC 12228): ≦0.125 mg/L
- MIC (gram positive bacteria; S. pneumoniae Felton UC41): 8 µg/mL
- MIC (gram positive bacteria; [10]): 0.5 µg/mL
- MIC (gram positive bacteria; Streptococcus pyrogenes SKF 13400): 4 µg/mL
